Results published in patent publication US11571480B2, “Multi-ligand drug conjugates and uses thereof” (priority 2015, dated 2023).
Square brackets hold non-standard residues; d marks the D form. Peptide text beside a SMILES is read from it. * marks the point of attachment. Dolaproine = CO[C@@H]([C@@H]1CCCN1)[C@@H](C)C(=O)O; Dil = CC[C@H](C)[C@H](NC)[C@@H](CC(=O)O)OC; X1 = C[C@@H](N*)[C@@H](O)c1ccccc1; NMeV = CN[C@H](C(=O)O)C(C)C

Columns and labels:
[1] = test system: breast cancer cell line HCC1954; experiment: Cytotoxicity test of conjugate LDC10B; format: cell-based, human; settings: HCC1954, Incubation Time 30 min
Description: (§1) Culture medium: RPMI 1640 Medium, no folic acid
(§2) 1) human nasopharyngeal cancer cell line KB, melanoma cell line A375, human lung cancer cell H1299, chronic myeloid leukemia cell line K562, human lung cancer cell H460, ovarian cancer cell SKOV3, breast cancer cell line HCC1954, human gastric cancer cell N87, and human breast cancer cell SK-BR-3 were incubated at 37° C., 5% CO2 in RPMI 1640 medium containing 10% fetal bovine serum, the cells were passaged every 2-3 days.
(§3) 2) human nasopharyngeal cancer cell line KB, melanoma cell line A375, human lung cancer cell H1299, chronic myeloid leukemia cell line K562, human lung cancer cell H460, ovarian cancer cell SKOV3, breast cancer cell line HCC1954, human gastric cancer cell N87, and human breast cancer cell SK-BR-3 were plated at 1×10^3 cells per well (96-well plate) and incubated for 8-12 h at 37° C., 5% CO2.
(§4) 3) Stock solutions of LDC conjugates or controls were prepared in PBS solution. 100 μL/well of serially diluted LDC conjugates or controls was added to the test cells in the plates and incubated for 15-30 min at 37° C., 5% CO2. The culture medium in the wells was then removed by aspiration and the test cells were incubated in fresh culture medium without conjugates (150 μL/well) for 2-3 days at 37° C., 5% CO2.
(§5) 4) CellTiter 96® Aqueous One Solution Cell Proliferation Assay (Promega) was added to each well to measure the amount of […] cells, and each plate was incubated in an incubator for 1 h at 37° C., 5% CO2.
(§6) 5) Each plate was read at 490 nm on a microplate reader, and the cell survivals were compared for test cells with or without the treatment of LDC conjugates. The LDC drug concentrations that are required for 50% cell death (IC50 values) were determined.

[2] = test system: ovarian cancer cell SKOV3; experiment: Cytotoxicity test of conjugate LDC10B; format: cell-based, human; settings: SKOV3, Incubation Time 30 min
Description: as §1, §2, §3, §4, §5, §6

[3] = test system: human endometrial cancer cell HEC-1A; experiment: Cytotoxicity test of conjugate LDC12B; format: cell-based; settings: incubated 15-30 min, then 2-3 days
Description: as §1
(§7) 1) human endometrial cancer cell HEC-1A, human gastric cancer cell line GTL-16, human colon carcinoma HCT-116, human neuroblastoma cell line SH-SY5Y were incubated at 37° C., 5% CO2 in RPMI 1640 medium containing 10% fetal bovine serum, the cells were passaged every 2-3 days.
(§8) 2) human endometrial cancer cell HEC-1A, human gastric cancer cell line GTL-16, Human colon carcinoma HCT-116, human neuroblastoma cell line SH-SY5Y were plated at 1×10^3 cells per well (96-well plate) and incubated for 8-12 h at 37° C., 5% CO2.
as §4, with “control” for “controls”, “the” for “the test”, “plate” for “plates”
(§9) 4) CellTiter 96® Aqueous One Solution Cell Proliferation Assay (Promega) was added to each well to measure the amount of […] cells, and the plate was incubated in an incubator for 1 h at 37° C., 5% CO2.
(§10) 5) the plate was read at 490 nm on a microplate reader, and the cell survivals were compared for cells with or without the treatment of LDC conjugates. The LDC drug concentrations that are required for 50% cell death (IC50 values) were determined.

[4] = test system: human gastric cancer cell line GTL-16; experiment: Cytotoxicity test of conjugate LDC12B; format: cell-based; settings: GTL-16, incubated 15-30 min, then 2-3 days
Description: as §1, §7, §8
as §4, with “control” for “controls”, “the” for “the test”, “plate” for “plates”
as §9, §10

[5] = test system: human colon carcinoma HCT-116; experiment: Cytotoxicity test of conjugate LDC12B; format: cell-based; settings: HCT-116, incubated 15-30 min, then 2-3 days
Description: as §1, §7, §8
as §4, with “control” for “controls”, “the” for “the test”, “plate” for “plates”
as §9, §10

[6] = test system: human lung cancer cell H460; experiment: Cytotoxicity test of conjugate LDC10H; format: cell-based; settings: H460, incubated 15-30 min, then 2-3 days
Description: as §1
(§11) 1) human lung cancer cell H1299, ovarian cancer cell SKOV3, breast cancer cell line HCC1954, and human lung cancer cell H460 were incubated at 37° C., 5% CO2 in RPMI 1640 medium containing 10% fetal bovine serum, the cells were passaged every 2-3 days.
(§12) 2) human lung cancer cell H1299, ovarian cancer cell SKOV3, breast cancer cell line HCC1954, and human lung cancer cell H460 were plated at 1×10^3 cells per well (96-well plate) and incubated for 8-12 h at 37° C., 5% CO2.
as §4, with “control” for “controls”, “the” for “the test”, “plate” for “plates”
as §9, §10

[7] = test system: human lung cancer cell H1299; experiment: Cytotoxicity test of conjugate LDC10H; format: cell-based; settings: H1299, incubated 15-30 min, then 2-3 days
Description: as §1, §11, §12
as §4, with “control” for “controls”, “the” for “the test”, “plate” for “plates”
as §9, §10

[8] = test system: ovarian cancer cell SKOV3; experiment: Cytotoxicity test of conjugate LDC11B; format: cell-based, human; settings: SKOV3, incubated 15-30 min, then 2-3 days
Description: as §1
1) human lung cancer cell H460, ovarian cancer cell SKOV3, human embryonic kidney cell 293A were incubated at 37° C., 5% CO2 in RPMI 1640 medium containing 10% fetal bovine serum, the cells were passaged every 2-3 days.
2) human lung cancer cell H460, ovarian cancer cell SKOV3, human embryonic kidney cell 293A were plated at 1×10^3 cells per well (96-well plate) and incubated for 8-12 h at 37° C., 5% CO2.
as §4, with “control” for “controls”, “the” for “the test”, “plate” for “plates”
as §9
5) The plate was read at 490 nm on a microplate reader, and the cell survivals were compared for cells with or without the treatment of LDC conjugates. The LDC drug concentrations that are required for 50% cell death (IC50 values) were determined.

[9] = test system: human prostatic cancer cell PC-3; experiment: Cytotoxicity test of conjugate LDC13B; format: cell-based; settings: PC-3, incubated 15-30 min, then 2-3 days
Description: as §1
(§13) 1) human nasopharyngeal cancer cell line KB, human colon carcinoma HCT-116, human prostatic cancer cell PC-3, human gastric cancer cell line GTL-16, human endometrial cancer cell HEC-1A, and human gastric cancer cell N87 were incubated at 37° C., 5% CO2 in RPMI 1640 medium containing 10% fetal bovine serum, the cells were passaged every 2-3 days.
(§14) 2) human nasopharyngeal cancer cell line KB, human colon carcinoma HCT-116, human prostatic cancer cell PC-3, human gastric cancer cell line GTL-16, human endometrial cancer cell HEC-1A, and human gastric cancer cell N87 were plated at 1×10^3 cells per well (96-well plate) and incubated for 8-12 h at 37° C., 5% CO2.
as §4, with “control” for “controls”, “the” for “the test”, “plate” for “plates”
as §9, §10

[10] = test system: human nasopharyngeal cancer cell line KB; experiment: Cytotoxicity test of conjugate LDC13B; format: cell-based; settings: KB, incubated 15-30 min, then 2-3 days
Description: as §1, §13, §14
as §4, with “control” for “controls”, “the” for “the test”, “plate” for “plates”
as §9, §10

[11] = test system: human endometrial cancer cell HEC-1A; experiment: Cytotoxicity test of conjugate LDC13B; format: cell-based; settings: incubated 15-30 min, then 2-3 days
Description: as §1, §13, §14
as §4, with “control” for “controls”, “the” for “the test”, “plate” for “plates”
as §9, §10

[12] = test system: human gastric cancer cell line GTL-16; experiment: Cytotoxicity test of conjugate LDC13B; format: cell-based; settings: GTL-16, incubated 15-30 min, then 2-3 days
Description: as §1, §13, §14
as §4, with “control” for “controls”, “the” for “the test”, “plate” for “plates”
as §9, §10

[13] = test system: human gastric cancer cell N87; experiment: Cytotoxicity test of conjugate LDC13B; format: cell-based; settings: N87, incubated 15-30 min, then 2-3 days
Description: as §1, §13, §14
as §4, with “control” for “controls”, “the” for “the test”, “plate” for “plates”
as §9, §10

[14] = test system: human colon carcinoma HCT-116; experiment: Cytotoxicity test of conjugate LDC13B; format: cell-based; settings: HCT-116, incubated 15-30 min, then 2-3 days
Description: as §1, §13, §14
as §4, with “control” for “controls”, “the” for “the test”, “plate” for “plates”
as §9, §10

SMILES: CC[C@H](C)[C@@H]([C@@H](CC(=O)N1CCC[C@H]1[C@H](OC)[C@@H](C)C(=O)N[C@H](C)[C@@H](O)c1ccccc1)OC)N(C)C(=O)[C@@H](NC(=O)[C@@H](NC)C(C)C)C(C)C [MMAE] (H-[NMeV]V[Dil][Dolaproine]-X1)
- IC50 [1]: 0.45 nM
- IC50 [2]: 0.62 nM
- IC50 [3]: 8.74 nM
- IC50 [4]: 6.38 nM
- IC50 [5]: 12.7 nM
- IC50 [6]: 0.56 nM
- IC50 [7]: 0.71 nM
- IC50 [8]: 0.44 nM
- IC50 [9]: 12.8 nM
- IC50 [10]: 28.8 nM
- IC50 [11]: 8.74 nM
- IC50 [12]: 6.38 nM
- IC50 [13]: 3.83 nM
- IC50 [14]: 12.7 nM
